Here are results for 2 compounds from patent US20250099633A1, “NTSR1-TARGETED RADIOPHARMACEUTICALS AND CHECKPOINT INHIBITOR COMBINATION THERAPY” (Fusion Pharmaceuticals Inc., priority 2022, published 2025).

In data set [1] the test system is mouse NTSR1 overexpressing tumors. Kind of data set: [177Lu]-Compound A biodistribution in CT-26 syngeneic model. The class given is in vivo. The settings on record: 6-48 hours post injection. The method, then:
Tumor uptake was maintained at 2.5-7% injected dose/g (ID/g) from 6-48 hours post injection.

Data set [2] deals with CT-26-mNTSR1 tumor. Kind of data set: Combination with checkpoint inhibitors, relative tumor volume in the CT-26-mNTSR1 mouse model. Format: in vivo. On the procedure: An in vivo study was conducted to test the effect of [^225Ac]-Compound A (as described in Example 3) combined with checkpoint inhibitors, α-CTLA-4 and α-PD-1 antibodies, on relative tumor volume in the CT-26-mNTSR1 mouse model.

Data set [3] has as its system CT-26-mNTSR1 tumor. Kind of data set: Combination with checkpoint inhibitors, survival in the CT-26-mNTSR1 mouse model. The class given is in vivo. As to conditions: for Overall survival: intravenous. The method, then:
An in vivo study was conducted to test the effect of [^225Ac]-Compound A (as described in Example 3) combined with checkpoint inhibitors, α-CTLA-4 and α-PD-1 antibodies, on survival in the CT-26-mNTSR1 mouse model.
Separately, an in vivo study was conducted to test the effect of [^225Ac]-Compound A (as
described in Example 4) at a different dosage in combination with checkpoint inhibitors, α-CTLA-4 and α-PD-1 antibodies, on survival in the CT-26-mNTSR1 mouse model.

Data set [4] deals with CT-26-mNTSR1 tumor. Kind of data set: Efficacy study in immunocompetent CT-26-mNTSR1 tumor bearing-mice (tumor volume). The class given is in vivo, mouse. As to conditions: different doses; CT-26-mNTSR1 syngeneic mice with an intact immune system.

Molecules are shown by their SMILES.

In the case of `COc1cccc(OC)c1-c1cc(C(=O)NC2(C(=O)O)C3CC4CC(C3)CC2C4)nn1-c1ccc(C(=O)N(C)CCCN(C)CCCN(C)C(=O)CN2CCN(CC(=O)O)CCN(CC(=O)O)CCN(CC(=O)O)CC2)cc1C(C)C` (stereo not drawn) [[177Lu]-Compound A, metal not drawn], the Tumor uptake in data set [1] is listed as 2.5-7 % injected dose/g (ID/g).
As to `COc1cccc(OC)c1-c1cc(C(=O)NC2(C(=O)O)C3CC4CC(C3)CC2C4)nn1-c1ccc(C(=O)N(C)CCCN(C)CCCN(C)C(=O)CN2CCN(CC(=O)O)CCN(CC(=O)O)CCN(CC(=O)O)CC2)cc1C(C)C` (stereo not drawn) [[^225Ac]-Compound A, metal not drawn], the “Efficacy (tumor volume)” value with CT-26-mNTSR1 tumor [2] (0.185 MBq/kg or 0.555 MBq/kg single-dose, intravenous, co-administered with 5 mg/kg of CTLA-4 or PD-1 or both) is reported as “increased efficacy was observed including tumor suppression”. Further, the “Tumor regression, duration” value with CT-26-mNTSR1 tumor [2] (0.555 MBg/kg dose, co-administration with both CTLA-4 and PD-1) is given as at least 40 days post-treatment. In addition, the Tumor volume entry in the data set on CT-26-mNTSR1 tumor [2] (0.555 MBg/kg dose, co-administration with both CTLA-4 and PD-1, compared to vehicle control and 225Ac-radiopharmaceutical alone groups) was “significantly smaller tumor volume”; in the data set on CT-26-mNTSR1 tumor [2] (0.555 MBq/kg single-dose, intravenous, alone, relative to the vehicle control group), “greater reductions in tumor volume”. The Overall survival entry in the data set with CT-26-mNTSR1 tumor [3] (0.185 MBq/kg single-dose, with 5 mg/kg α-CTLA-4 or α-PD-1 (or both), compared to vehicle control or [225Ac]-Compound A alone) is reported as “increased overall survival”; in the data set on CT-26-mNTSR1 tumor [3] (0.555 MBq/kg single-dose, with 5 mg/kg α-CTLA-4 or α-PD-1, compared to the vehicle and [225Ac]-Compound A single treatment group), “increased overall survival”. The Survival result in the data set on CT-26-mNTSR1 tumor [3] (0.555 MBq/kg, co-administration with both α-CTLA-4 and α-PD-1, compared to vehicle control or [225Ac]-Compound A with or without either antibody) is “increased survival”. Moreover, in the data set with CT-26-mNTSR1 tumor [4], the “Efficacy in reducing tumor volume” value was “enhanced efficacy in reducing tumor volume”.
